This note sets out measurements from patent US20240109881A1, “Heteroaryl Compounds as Ligand Directed Degraders of IRAK4” (Bristol-Myers Squibb Company, priority 2022, published 2024).

The experiment addresses T1, IRAK4 (Homo sapiens, UniProt Q9NWZ3).
T1 construct: endogenous in cells; host or cells: THP-1 cells
T1 sequence (Q9NWZ3 1-460): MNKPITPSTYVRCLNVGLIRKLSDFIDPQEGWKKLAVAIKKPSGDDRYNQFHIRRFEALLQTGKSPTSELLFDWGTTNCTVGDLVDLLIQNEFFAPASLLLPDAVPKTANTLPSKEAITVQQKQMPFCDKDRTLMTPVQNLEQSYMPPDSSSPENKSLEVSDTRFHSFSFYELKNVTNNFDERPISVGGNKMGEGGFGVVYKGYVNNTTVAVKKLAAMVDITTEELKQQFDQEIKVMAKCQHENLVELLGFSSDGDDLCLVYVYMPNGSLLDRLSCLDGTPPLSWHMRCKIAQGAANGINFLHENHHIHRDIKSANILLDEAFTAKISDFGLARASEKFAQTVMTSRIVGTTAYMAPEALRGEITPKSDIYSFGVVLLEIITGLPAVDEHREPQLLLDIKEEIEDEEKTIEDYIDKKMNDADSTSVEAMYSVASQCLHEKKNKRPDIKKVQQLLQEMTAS
The experiment in a line: LVL THP1 HTRF (THP1 Homogeneous Time Resolved Fluorescence). To be noted: THP1 cells, 18 h incubation with compound; for DC50: read-out: LVL THP1 HTRF EC50. Type of experiment: cell-based. Put shortly:
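IRAK4 HTRF read-out (665/615 nm ratio, anti-IRAK4 d2 acceptor and K donor, 18 h dark incubation at room temperature) on lysates of THP-1 cells. Cells were treated 18 h at 37° C. with 20 nL compound in DMSO, in colorless RPMI with 10% FBS, with a duplicate CTG plate.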
(In general: In TR-FRET formats the signal depends on donor and acceptor labels being close together.)

Take `N#Cc1cnc2c(cnn2-c2cc(NCC3COC3)c(-n3cc([C@H]4CC[C@H](CCN5CCN(c6ccc(C7CCC(=O)NC7=O)cc6)CC5)CC4)nn3)cn2)c1` (stereo partly drawn) [P-408]: the “LVL THP1 HTRF YMIN” value is recorded as 7.8% and the DC50 is 42.6 nM. On to `C[C@H](C#N)Nc1cc(-n2ncc3cc(C#N)cnc32)ncc1C(=O)N[C@H]1CC[C@H](CCN2CC[C@H]3[C@@H]2CCN3c2ccc(N3CCC(=O)NC3=O)c(Cl)c2)CC1` [P-475], for which the “LVL THP1 HTRF YMIN” value amounted to 6.4% and the DC50 was 47 nM. Take `C[C@H](C#N)Nc1cc(-c2ccc3cc(C#N)cnn23)ncc1-n1cc(C2CCC(CCN3CCN(c4ccc([C@@]5(C)CCC(=O)NC5=O)cc4)CC3)CC2)nn1` (stereo partly drawn) [P-230]: the “LVL THP1 HTRF YMIN” value was 2.8%. `C[C@H](C#N)Nc1cc(-n2ncc3cc(C#N)cnc32)ncc1-n1cc(C2CCC(CCN3CC[C@H]4[C@@H]3CCN4c3ccc(N4CCC(=O)NC4=O)cc3)CC2)nn1` (single isomer, unassigned) [P-328]: the “LVL THP1 HTRF YMIN” value was 2.5% and the DC50 is 2.5 nM.

For `C[C@H](C#N)Nc1cc(-n2ncc3cc(C#N)cnc32)ncc1-n1cc([C@H]2CC[C@](O)(CCN3CCN(c4ccc([C@@]5(C)CCC(=O)NC5=O)cc4)[C@@H](C)C3)CC2)nn1` (single isomer, unassigned) [P-291], the “LVL THP1 HTRF YMIN” value is listed as −4.4% and the DC50 turned out to be 57.7 nM. With `C[C@H](C#N)Nc1cc(-n2ncc3cc(C#N)cnc32)ncc1-c1ncn(C2CCC(CCN3CCN(c4ccc(C5CCC(=O)NC5=O)cc4)CC3)CC2)n1` (stereo partly drawn) [P-224], the “LVL THP1 HTRF YMIN” value was 15.9%.

For `Cc1cc(N2CC[C@H]3[C@@H]2CCN3CC[C@H]2CC[C@H](NC(=O)c3cnc(-n4ncc5cc(C#N)cnc54)cc3N[C@H](C)C#N)CC2)ccc1N1CCC(=O)NC1=O` [P-490], the “LVL THP1 HTRF YMIN” value is 81.6% and the DC50 was found to be 1000 nM. With `C[C@H](C#N)Nc1cc(-n2ncc3cc(C#N)cnc32)ncc1-n1cc([C@H]2CC[C@H](CCN3CCN(c4ccc(N5CCC(=O)NC5=O)nc4)CC3)CC2)nn1` [P-370], the “LVL THP1 HTRF YMIN” value came out at 1.2% and the DC50 amounted to 30.5 nM.

On to `C[C@H](C#N)Nc1cc(-n2ncc3cc(C#N)cnc32)ncc1-n1cc([C@H]2CC[C@H](CCN3CCC(n4cc(NC5CCC(=O)NC5=O)cn4)CC3)CC2)nn1` (stereo partly drawn) [P-348], for which the “LVL THP1 HTRF YMIN” value worked out at 13.1% and the DC50 worked out at 94.9 nM. In the case of `C[C@H](C#N)Nc1cc(-n2ncc3cc(C#N)cnc32)ncc1-n1cc([C@H]2CC[C@H](CCN3CC[C@H]4[C@@H]3CCN4c3ccc([C@@]4(C)CCC(=O)NC4=O)cn3)CC2)nn1` (single isomer, unassigned) [P-313], the “LVL THP1 HTRF YMIN” value was 44.9% and the DC50 was 244 nM.

As to `C[C@H](C#N)Nc1cc(-n2ncc3cc(C#N)cnc32)ncc1-n1cc([C@H]2CC[C@H](CCN3CCN(c4ccc(N5CCC(=O)NC5=O)cc4)[C@@H](C)C3)CC2)nn1` [P-356], the “LVL THP1 HTRF YMIN” value amounted to 8.6% and the DC50 came to 40.6 nM. The corresponding values for `Cc1cc(N2CCN(CC[C@H]3CC[C@H](NC(=O)c4cnc(-n5ncc6cc(C#N)c(N)nc65)cc4N[C@H](C)C#N)CC3)C[C@H]2C)ccc1C1CCC(=O)NC1=O` (stereo partly drawn) [P-171] are 1.2% and 23 nM.

In the case of `C[C@H](C#N)Nc1cc(-n2ncc3cc(C#N)c(N)nc32)ncc1-n1cc(C2CCC(CCN3CCN(c4ccc([C@@]5(C)CCC(=O)NC5=O)cc4)CC3)CC2)nn1` (stereo partly drawn) [P-222], the “LVL THP1 HTRF YMIN” value is 2.1%. On to `C[C@H](C#N)Nc1cc(-n2ncc3cc(C#N)cnc32)ncc1-n1cc([C@H]2CC[C@H](CCN3CCC(O)(c4ccc(N5CCC(=O)NC5=O)cc4)CC3)CC2)nn1` [P-353], for which the “LVL THP1 HTRF YMIN” value came out at 88.5% and the DC50 is 1000 nM. For `C[C@H](C#N)Nc1cc(Nc2ncc(C#N)cc2F)ncc1-n1cc([C@H]2CC[C@H](CCN3CCN(c4ccc(N5CCC(=O)NC5=O)cc4)CC3)CC2)nn1` [P-386], the “LVL THP1 HTRF YMIN” value was found to be 6.7% and the DC50 was determined as 24.2 nM.

With `C[C@H](C#N)Nc1cc(-n2ncc3cc(C#N)cnc32)ncc1-n1cc([C@H]2CC[C@H](CCN3CCC(c4ccc(N5CCC(=O)NC5=O)cc4)C(F)(F)C3)CC2)nn1` (stereo partly drawn) [P-401], the “LVL THP1 HTRF YMIN” value is recorded as 0.5% and the DC50 was determined as 12 nM.

With `C[C@H](C#N)Nc1cc(-n2ncc3cc(C#N)cnc32)ncc1-n1cc([C@H]2CC[C@H](CCN3CCC(c4ccn(C5CCC(=O)NC5=O)c(=O)c4)CC3)CC2)nn1` (stereo partly drawn) [P-413], the “LVL THP1 HTRF YMIN” value is listed as −1.3% and the DC50 turned out to be 5.1 nM. For the compound `C[C@H](C#N)Nc1cc(Nc2ncc(C#N)cn2)ncc1-n1cc([C@H]2CC[C@H](CCN3CCN(c4ccc([C@@]5(C)CCC(=O)NC5=O)cc4)CC3)CC2)nn1` [P-300], the “LVL THP1 HTRF YMIN” value came to 11.7% and the DC50 was 243 nM. In the same order, the values of `CNc1nc2c(cnn2-c2cc(N[C@H](C)C#N)c(C(=O)N[C@H]3CC[C@H](CCN4CCN(c5ccc(C6CCC(=O)NC6=O)cc5)CC4)CC3)cn2)cc1C#N` (stereo partly drawn) [P-188] are 1.1% and 6 nM. Regarding `C[C@H](C#N)Nc1cc(-n2ncc3cnc(N)nc32)ncc1-n1cc(C2CCC(CCN3CCN(c4ccc([C@@]5(C)CCC(=O)NC5=O)cc4)CC3)CC2)nn1` (stereo partly drawn) [P-228], the “LVL THP1 HTRF YMIN” value was found to be 3.6%. Regarding `C[C@H](C#N)Nc1cc(-n2ncc3cc(C#N)c(N)nc32)ncc1-n1cc([C@H]2CC[C@H](CCN3[C@@H](C)CN(c4ccc([C@@]5(C)CCC(=O)NC5=O)cn4)C[C@@H]3C)CC2)nn1` (single isomer, unassigned) [P-254], the “LVL THP1 HTRF YMIN” value was 91.0% and the DC50 amounted to 21.7 nM. On to `C[C@H](C#N)Nc1cc(Nc2ncc(C#N)cn2)ncc1-n1cc([C@H]2CC[C@H](CCN3CCN(c4ccc(N5CCC(=O)NC5=O)cc4)CC3)CC2)nn1` [P-389], for which the “LVL THP1 HTRF YMIN” value stood at 18.9% and the DC50 came out at 180 nM.

For the compound `C[C@H](C#N)Nc1cc(-n2ncc3cc(C#N)cnc32)ncc1-n1cc(C2CCC(CCN3[C@@H](C)CN(c4ccc([C@@]5(C)CCC(=O)NC5=O)cc4)C[C@@H]3C)CC2)nn1` (stereo partly drawn) [P-238], the “LVL THP1 HTRF YMIN” value is given as 1.1% and the DC50 was determined as 25 nM. In the same order, the values of `C[C@H](C#N)Nc1cc(-n2ncc3cc(Cl)cnc32)ncc1-n1cc([C@H]2CC[C@H](CCN3CCN(c4ccc(C5CCC(=O)NC5=O)cc4)CC3)CC2)nn1` (stereo partly drawn) [P-375] are 2.5% and 6.5 nM. `C[C@H](C#N)Nc1cc(-n2ncc3cc(C#N)cnc32)ncc1-n1cc([C@H]2CC[C@H](CCN3CCC(c4cccc5c(N6CCC(=O)NC6=O)nn(C)c45)CC3)CC2)nn1` [P-335]: the “LVL THP1 HTRF YMIN” value was determined as 5.1% and the DC50 was determined as 29.8 nM. Consider `CC[C@@H]1CN(CC[C@H]2CC[C@H](c3cn(-c4cnc(-n5ncc6cc(C#N)cnc65)cc4N[C@H](C)C#N)nn3)CC2)CCN1c1ccc(N2CCC(=O)NC2=O)cc1` [P-441], for which the “LVL THP1 HTRF YMIN” value is given as −0.1% and the DC50 was determined as 2.6 nM. Turning to `C[C@H](C#N)Nc1cc(-n2ncc3cc(C#N)cnc32)ncc1-n1cc(C2CCC(CCN3CCN(c4ccc([C@]5(C)CCC(=O)NC5=O)cc4)CC3)CC2)nn1` (stereo partly drawn) [P-210], the “LVL THP1 HTRF YMIN” value was >95.0% and the DC50 turned out to be 15 nM. `C[C@H](C#N)Nc1cc(-n2ncc3cc(C#N)cnc32)ncc1-n1cc([C@H]2CC[C@H](CCN3CCC4(c5ccc(N6CCC(=O)NC6=O)cc5)CC4C3)CC2)nn1` (stereo partly drawn) [P-471]: the “LVL THP1 HTRF YMIN” value came to 7.7% and the DC50 was found to be 87.9 nM. The corresponding values for `CCNc1cc(-n2ncc3cc(C#N)cnc32)ncc1-n1cc([C@H]2CC[C@H](CCN3CCN(c4ccc(C5CCC(=O)NC5=O)cc4)CC3)CC2)nn1` (stereo partly drawn) [P-395] are 2.6% and 9.3 nM. Take `C[C@H](C#N)Nc1cc(-n2ncc3cc(C#N)cnc32)ncc1-n1cc([C@H]2CC[C@H](CCN3CC4(CC(c5ccc(N6CCC(=O)NC6=O)cc5)C4)C3)CC2)nn1` [P-329]: the “LVL THP1 HTRF YMIN” value worked out at 2.6% and the DC50 turned out to be 5.9 nM. `CS(=O)(=O)N1CCC(Nc2cc(-n3ncc4cc(C#N)c(N)nc43)ncc2-n2cc(C3CCC(CCN4CCN(c5ccc(C6CCC(=O)NC6=O)cc5)CC4)CC3)nn2)CC1` (stereo not drawn) [P-217]: the “LVL THP1 HTRF YMIN” value is reported as 1.6%. Regarding `C[C@H](C#N)Nc1cc(-n2ncc3cc(C#N)cnc32)ncc1-n1cc([C@H]2CC[C@H](CCN3CCC(c4ccc([C@@]5(C)CCC(=O)NC5=O)cc4)C(F)C3)CC2)nn1` (stereo partly drawn) [P-311], the “LVL THP1 HTRF YMIN” value is on record as −1.0% and the DC50 worked out at 3 nM. The corresponding values for `C[C@H](C#N)Nc1cc(-n2ncc3cc(C#N)c(N)nc32)ncc1-n1cc([C@H]2CC[C@H](CCN3CCN(c4cnc([C@@]5(C)CCC(=O)NC5=O)nc4)CC3)CC2)nn1` (single isomer, unassigned) [P-263] are 9.0% and 25.7 nM. For the compound `C[C@H](C#N)Nc1cc(-n2ncc3cc(C#N)cnc32)ncc1-n1cc([C@H]2CC[C@H](CCN3CCN(c4ccc(N5CCC(=O)NC5=O)c(Cl)c4)[C@H](C)C3)CC2)nn1` [P-437], the “LVL THP1 HTRF YMIN” value came to 0.0% and the DC50 came out at 0.4 nM.
